# Measured values: patent US7449570B2, “Use of nucleoside compounds for nonsense suppression and the treatment of genetic diseases” (PTC Therapeutics, Inc., priority 2002, dated 2008)
# Assays:
# [1] = tested on: luciferase reporter construct containing a UGA premature termination codon; experiment: cell-based luciferase reporter assay (nonsense suppression); design: key: Compounds which were found to have either or both very high potency and very high efficacy of protein synthesis are classified as “***”; Compounds which were found to have significant potency and/or efficacy of protein synthesis were classified as “**”; compounds which were found to have potency and/or efficacy of protein synthesis were classified as “*”; conditions: UGA premature termination codon luciferase reporter stably transfected in 293T Human Embryonic Kidney cells; qualitative potency/efficacy of protein synthesis; gentamicin internal standard
# Experimental: Activity measurements in Table 1 were performed in a cell-based luciferase reporter assay (as described in Section 4.2) comprising a luciferase reporter construct containing a UGA premature termination codon that was stably transfected in 293T Human Embryonic Kidney cells. Gentamicin, a small molecule known to allow readthrough of premature termination codons, was used as an internal standard. Activity measurements are based on the qualitative ratio between the minimum concentration of compound required to produce a given protein in a cell versus the amount of protein produced by the cell at that concentration.
# The test compounds identified in the nonsense suppression assay (for convenience referred to herein as a compound of the invention) can be tested for biological activity using host cells containing or engineered to contain the target RNA element coupled to a functional readout system. For example, the lead compound can be tested in a host cell engineered to contain the RNA with the premature translation termination codon controlling the expression of a reporter gene. In this example, the lead compounds are assayed in the presence or absence of the RNA with the premature translation termination codon. Compounds that modulate premature translation termination and/or nonsense-mediated mRNA decay in vivo will result in increased expression of the full-length gene, i.e., past the premature termination codon. Alternatively, a phenotypic or physiological readout can be used to assess activity of the target RNA with the premature translation termination codon in the presence and absence of the lead compound. Both the in vitro and in vivo nonsense suppression assays used herein and as described in International Patent Publication WO 01/44516, which is incorporated by reference herein in its entirety, can be used to identify lead compounds and can also be used to determine an EC50 for the lead compounds.
# A stable cell line harboring the UGA nonsense-containing luciferase gene is treated with a test compound. Cells are grown in standard medium supplemented with 1% penicillin-streptomycin (P/S) and 10% fetal bovine serum (FBS) to 70% confluency and split 1:1 the day before treatment. The next day, cells are trypsinized and 40,000 cells are added to each well of a 96-well tissue culture dish. Serial dilutions of each compound are prepared to generate a six-point dose response curve spanning 2 logs (30 μM to 0.3 μM). The final concentration of the DMSO solvent remains constant at 1% in each well. Cells treated with 1% DMSO serve as the background standard, and cells treated with gentamicin serve as a positive control.
# [2] = tested on: lysosomal tripeptidyl-peptidase 1 (TPP-I); conditions: patient-derived LINCL cell line, compound heterozygous for Arg208Stop and a different rare nonsense mutation; Sleat et al. 2001; cited from earlier work
Molecule,Activity [1],normal levels of TPP-I maximally restored [2]
"Nc1ncnc(N[C@@H]2C[C@H](CO)[C@@H](O)[C@H]2O)c1[N+](=O)[O-] [Compound 6, (1R,2S,3R,5R)-3-(6-Amino-5-nitro-pyrimidin-4-ylamino)-5-hydroxymethyl-cyclopentane-1,2-diol]",0,–
"Nc1ncnc(N[C@H]2C[C@@H](CO)[C@H](O)[C@@H]2O)c1[N+](=O)[O-] [Compound 7, (1S,2R,3S,5S)-3-(6-Amino-5-nitro-pyrimidin-4-ylamino)-5-hydroxymethyl-cyclopentane-1,2-diol]",0,–
"Nc1ncnc(N[C@H]2O[C@H](CO)[C@@H](O)[C@H]2O)c1[N+](=O)[O-] [Compound 22, 6-amino-5-nitro-4-(α-D-ribofuranosylamino)-pyrimidine]",***,–
"Nc1ncnc(N[C@@H]2O[C@H](COC(=O)c3ccccc3)[C@@H](OC(=O)c3ccccc3)[C@H]2OC(=O)c2ccccc2)c1[N+](=O)[O-] [Compound 24, 6-Amino-5-nitro-4-[(2,3,5-tri-O-benzoyl-β-D-ribofuranosyl)amino]pyrimidine]",**,–
"COC(=O)c1c(Cl)ncnc1N[C@@H]1O[C@H](CO)[C@@H](O)[C@H]1O [Compound 26, Methyl 6-chloro-4-(β-D-ribofuranosylamino)pyrimidine-5-carboxylate]",0,–
"COC(=O)c1c(N)ncnc1N[C@H]1O[C@H](CO)[C@@H](O)[C@H]1O [Compound 27, Methyl 6-amino-4-(α-D-ribofuranosylamino)pyrimidine-5-carboxylate]",*,–
gentamicin,–,approximately 7%
